Values of other authors in PMC12451523 (RSC Advances, 2025).

Target: fungal tyrosinase
Conditions: read-out: IC50 (μM) ± S.E., standard inhibitors, ref [50]

IC50 [µM]	SMILES
11.5 ± 1	O=C1O[C@H]([C@@H](O)CO)C(O)=C1O [Ascorbic acid]
30.3 ± 1	O=c1cc(CO)occ1O [Kojic acid]
